Reference: article PMC9050674, “Structure-based inhibitor design for reshaping bacterial morphology” (Communications Biology, 2022)

How the values were obtained:
Pgp3 = Pgp3 (Campylobacter jejuni, UniProt Q0P921); test: biochemical; parameters: species or system C. jejuni
Experimental: Because DABCYL/FITC is a typical FRET quencher–fluorophore pair, an increase in fluorescent signals can be directly detected when it is processed by Pgp3 (Tang et al., 2013). The kinetic parameters (kcat = 0.0209 ± 0.0006 s^−1 and KM = 6.6 ± 0.7 µM) for the substrate were obtained by fitting the data to the Michaelis-Menten equation (Supplementary Fig. 8a).
The enzymatic assay for Pgp3 activity was determined using a fluorescein isothiocyanate (FITC) and 4′-([4′-(Dimethylamino)phenyl]-azo)-benzoic acid (DABCYL) pair for FRET. […] The excitation and emission spectra were set at 495 nm and 525 nm, respectively. Pgp3 (0.1 μM) in 20 mM HEPES pH 7.5, 200 mM NaCl, and 0.4 μM of zinc was used in this assay. The reaction was initiated by adding 3 μL of 0.015–2 mM substrate (final 1.56–200 μM) in the total volume of 30 μL of the reaction mixture. Initial velocities were calculated using slopes of fluorescence signal intensity in 3 min after the initiation of the reaction. In order to elucidate the inhibition mechanism of BMK-S301, initial velocities with various concentrations of substrates were measured in the presence of 40 μM BMK-S301. […] The same method was used for the determination of the IC50 values for inhibitors. Inhibitors in each concentration were pre-incubated with 0.1 μM of Pgp3 for 1 h on ice, and initial velocities were determined for 0.1, 10, 50, 100, 200, 500, and 1000 μM of each inhibitor in reaction with 10 μM of substrate. The IC50 values were calculated using GraphPad Prism 7.

C. jejuni ATCC 33560 WT = test: Cell morphology change monitored by TEM; type: cell-based, Campylobacter jejuni; conditions: 37 °C, 24 h, KL-L9P used for improved permeability
Excerpt: Next, we investigated whether our inhibitors could transform C. jejuni from the helical- to curved-rod morphology on exposure to the inhibitors (Fig. 5). […] To investigate the effect of inhibitors on the morphology of C. jejuni cells, we exposed the cells to the inhibitors and checked whether the morphology could be altered.
Cell-morphology change of C. jejuni upon inhibitor treatment was monitored, as described previously with modifications. Briefly, overnight cultures of C. jejuni were harvested from MH agar plates and suspended in MH broth to approximately 1 × 10^6 colony-forming unit (CFU)/mL. A total of 500 μL of the diluted bacterial culture was added into each well of a 24-well plate with 5 μL of two-fold serial dilutions of inhibitor. For the control strain with no inhibitor, the same volume of dilution buffer (20 mM Tris-HCl pH 8.0 and 200 mM NaCl) was used. The plate was incubated under a micro-aerobic condition at 37 °C for 24 h in the static condition. After incubation, 10 μL of the bacterial cultures was placed on formvar/carbon-coated copper grids (200 mesh) and negatively stained with 2% uranyl acetate for 2 s.

Chain of Pgp3 (Q0P921 entry or part of it): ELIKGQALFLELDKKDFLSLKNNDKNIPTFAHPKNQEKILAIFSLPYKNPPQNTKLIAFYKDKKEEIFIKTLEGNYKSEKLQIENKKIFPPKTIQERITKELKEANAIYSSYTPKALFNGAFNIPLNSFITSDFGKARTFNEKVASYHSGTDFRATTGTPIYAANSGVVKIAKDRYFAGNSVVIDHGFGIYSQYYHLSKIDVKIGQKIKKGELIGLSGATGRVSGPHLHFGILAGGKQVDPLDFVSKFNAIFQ

What does the source list for `CC(=O)N[C@@H](Cc1ccc(S(N)(=O)=O)cc1)C(=O)N[C@H](C)C(=O)NO` [BMK-S301]?
IC50 (Pgp3): 22 ± 1.4 µM; minimum concentration causing morphological changes (helical to curved-rod) (C. jejuni ATCC 33560 WT): 25 μM
